One series addresses T1, Caspase-3 (Homo sapiens, UniProt P42574).
T1 sequence (P42574 whole entry): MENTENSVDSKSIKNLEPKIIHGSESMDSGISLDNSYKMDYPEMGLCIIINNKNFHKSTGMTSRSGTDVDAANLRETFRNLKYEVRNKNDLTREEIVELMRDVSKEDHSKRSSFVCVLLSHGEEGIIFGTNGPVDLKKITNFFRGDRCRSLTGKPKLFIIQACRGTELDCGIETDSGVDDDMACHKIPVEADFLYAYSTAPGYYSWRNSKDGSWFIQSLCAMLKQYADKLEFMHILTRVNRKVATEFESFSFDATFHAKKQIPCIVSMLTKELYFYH
The class given is functional.

Series [1] deals with T2, Sentrin-specific protease 7 (Homo sapiens, UniProt Q9BQF6).
T2 sequence (Q9BQF6 whole entry): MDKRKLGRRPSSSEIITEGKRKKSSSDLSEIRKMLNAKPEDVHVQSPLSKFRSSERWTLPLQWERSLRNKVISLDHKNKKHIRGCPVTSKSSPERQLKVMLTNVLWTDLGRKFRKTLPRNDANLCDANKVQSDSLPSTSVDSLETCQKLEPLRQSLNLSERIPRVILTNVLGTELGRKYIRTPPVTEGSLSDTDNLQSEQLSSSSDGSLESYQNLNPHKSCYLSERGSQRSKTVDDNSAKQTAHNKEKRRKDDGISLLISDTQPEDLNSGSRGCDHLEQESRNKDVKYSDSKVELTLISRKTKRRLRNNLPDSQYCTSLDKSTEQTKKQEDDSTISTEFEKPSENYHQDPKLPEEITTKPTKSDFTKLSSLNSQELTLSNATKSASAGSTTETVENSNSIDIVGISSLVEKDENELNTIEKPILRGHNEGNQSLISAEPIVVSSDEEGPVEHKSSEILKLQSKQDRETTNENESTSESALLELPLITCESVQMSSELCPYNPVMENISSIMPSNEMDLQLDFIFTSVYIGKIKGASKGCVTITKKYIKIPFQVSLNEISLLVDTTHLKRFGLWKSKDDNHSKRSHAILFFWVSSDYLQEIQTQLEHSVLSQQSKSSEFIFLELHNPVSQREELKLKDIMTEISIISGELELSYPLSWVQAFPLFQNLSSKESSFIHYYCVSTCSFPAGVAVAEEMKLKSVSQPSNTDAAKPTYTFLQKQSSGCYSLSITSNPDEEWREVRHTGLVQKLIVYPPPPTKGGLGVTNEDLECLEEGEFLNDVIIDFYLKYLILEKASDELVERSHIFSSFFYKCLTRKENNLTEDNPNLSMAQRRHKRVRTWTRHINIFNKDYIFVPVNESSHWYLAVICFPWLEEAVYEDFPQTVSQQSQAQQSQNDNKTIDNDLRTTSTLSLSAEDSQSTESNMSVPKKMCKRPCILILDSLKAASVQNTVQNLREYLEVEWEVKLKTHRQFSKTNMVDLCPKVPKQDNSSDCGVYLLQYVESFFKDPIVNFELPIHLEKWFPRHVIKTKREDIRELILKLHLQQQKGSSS
The class given is functional.

Series [2] has as its target T3, Sentrin-specific protease 6 (Homo sapiens, UniProt Q9GZR1).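 Also: Luminescence-based dose-response confirmatory assay of SENP6 inhibition, following up an ultra-high-throughput screen.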
T3 sequence (Q9GZR1 whole entry): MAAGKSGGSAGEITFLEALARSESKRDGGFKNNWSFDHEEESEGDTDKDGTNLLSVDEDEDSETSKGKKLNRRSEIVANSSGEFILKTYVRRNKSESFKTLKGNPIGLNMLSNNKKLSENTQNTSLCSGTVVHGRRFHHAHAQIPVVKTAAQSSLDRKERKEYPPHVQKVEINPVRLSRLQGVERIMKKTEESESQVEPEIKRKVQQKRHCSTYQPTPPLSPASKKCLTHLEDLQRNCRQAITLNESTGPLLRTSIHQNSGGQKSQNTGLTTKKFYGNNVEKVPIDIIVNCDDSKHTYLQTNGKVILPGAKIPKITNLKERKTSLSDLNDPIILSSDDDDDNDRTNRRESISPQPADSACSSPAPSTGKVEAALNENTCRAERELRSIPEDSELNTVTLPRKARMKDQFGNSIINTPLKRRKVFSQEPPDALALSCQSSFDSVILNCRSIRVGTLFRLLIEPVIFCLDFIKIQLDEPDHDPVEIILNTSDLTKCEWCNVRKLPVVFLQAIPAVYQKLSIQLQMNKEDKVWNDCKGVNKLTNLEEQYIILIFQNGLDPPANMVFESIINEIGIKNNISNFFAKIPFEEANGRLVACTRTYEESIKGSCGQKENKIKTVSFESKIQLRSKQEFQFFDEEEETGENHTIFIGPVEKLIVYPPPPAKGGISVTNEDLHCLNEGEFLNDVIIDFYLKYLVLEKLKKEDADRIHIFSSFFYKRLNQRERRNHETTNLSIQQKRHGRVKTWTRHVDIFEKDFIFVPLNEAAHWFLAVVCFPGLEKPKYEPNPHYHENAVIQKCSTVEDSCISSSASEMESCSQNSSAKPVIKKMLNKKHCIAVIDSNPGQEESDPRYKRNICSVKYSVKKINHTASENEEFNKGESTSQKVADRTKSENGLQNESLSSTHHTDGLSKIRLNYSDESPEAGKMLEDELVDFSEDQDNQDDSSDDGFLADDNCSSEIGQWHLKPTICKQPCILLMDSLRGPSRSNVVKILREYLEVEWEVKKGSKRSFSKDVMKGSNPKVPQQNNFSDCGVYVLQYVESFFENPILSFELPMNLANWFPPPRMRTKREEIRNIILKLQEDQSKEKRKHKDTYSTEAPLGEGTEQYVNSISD
The class given is functional.

Series [3] has as its target T4, Sentrin-specific protease 8 (Homo sapiens, UniProt Q96LD8).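 Also: luminescence read-out of SENP8 inhibition, dose-response confirmation following an ultra-high-throughput screen.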
T4 sequence (Q96LD8 whole entry): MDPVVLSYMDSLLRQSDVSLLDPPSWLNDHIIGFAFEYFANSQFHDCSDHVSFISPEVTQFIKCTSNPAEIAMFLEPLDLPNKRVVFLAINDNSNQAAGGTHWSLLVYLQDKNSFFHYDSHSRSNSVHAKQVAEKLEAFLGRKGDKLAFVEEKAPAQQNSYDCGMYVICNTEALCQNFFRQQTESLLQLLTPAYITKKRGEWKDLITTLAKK
The class given is functional.

Another series addresses Cytochrome P450 3A4 (Homo sapiens, UniProt P08684).
The target in series [4] is T5, Heat shock factor protein 1 (Mus musculus, UniProt P38532).
T5 sequence (P38532 whole entry): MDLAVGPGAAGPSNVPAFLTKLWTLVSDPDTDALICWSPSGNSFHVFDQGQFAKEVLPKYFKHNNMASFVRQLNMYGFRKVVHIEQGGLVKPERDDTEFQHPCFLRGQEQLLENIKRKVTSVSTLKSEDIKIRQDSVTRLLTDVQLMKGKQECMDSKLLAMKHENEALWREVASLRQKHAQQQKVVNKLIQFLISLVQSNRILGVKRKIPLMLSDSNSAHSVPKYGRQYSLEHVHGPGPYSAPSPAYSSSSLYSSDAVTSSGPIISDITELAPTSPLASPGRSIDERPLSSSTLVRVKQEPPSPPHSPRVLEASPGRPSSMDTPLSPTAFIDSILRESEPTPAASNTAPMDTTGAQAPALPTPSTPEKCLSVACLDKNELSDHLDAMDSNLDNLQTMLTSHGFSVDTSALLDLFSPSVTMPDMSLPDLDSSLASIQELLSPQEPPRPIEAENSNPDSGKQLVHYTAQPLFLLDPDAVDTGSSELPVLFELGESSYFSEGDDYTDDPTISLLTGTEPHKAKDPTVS
Briefly: decrease of HSF1-responsive luciferase luminescence – cell-based, NIH3T3, dose retest, confirmation (AID 2382).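 Also: NIH3T3 fibroblasts with HSF1-driven luciferase reporter stressed by proteasome inhibitor MG132; luminescence from HSF1-driven luciferase expression after 8 hours of MG132 stress.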 The class given is functional.

Series [5] is described as follows: THP-1 cell cytotoxicity, dose response, cytotoxicity control for non-replicating M. tuberculosis project (AID 489025). The class given is functional.
The nature of series [6]: Vero E6 cell cytotoxicity, dose response, cytotoxicity control for non-replicating M. tuberculosis project, secondary assay (AID 492998). Type of series: functional, VeroE6. The settings on record: Vero C1008.
The next series is described as follows: cells. Type of series: functional.
The next series has as its system INS1. Briefly: INS-1E survival protection against cytokine death – cell-based, luminescence, retest, dose response (AID 449756).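 Also: cell death triggered by IL-1 beta plus TNF-alpha plus IFN-gamma mixture; protective hits raise ATP signal compared with cytokine alone wells.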 Type of series: functional. The settings on record: Rattus norvegicus.
A short description of series [7]: reduction of Shn3 3'UTR-driven luciferase in osteoblasts – cell-based, Clone20 osteoblasts, firefly luciferase, cherry-picked, dose response (AID 624132).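 Also: firefly luciferase luminescence from reporter carrying the Shn3 3'UTR in osteoblasts.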 The class given is functional.
Series [8] in a line: loss of viability in HepG2 cells – cell-based, CellTiter-Glo, cherry-picked, cytotoxicity control for Shn3 inhibitor project, dose response (AID 624134). The class given is functional.
A short description of series [9]: non-specific 3'UTR reporter inhibition in Clone20-Shn3RL – cell-based, Renilla luciferase, cherry-picked, counter-screen for Shn3 inhibitor project, dose response (AID 624133). The class given is functional.
The target in the next series is Cytochrome P450 2C9 (Homo sapiens, UniProt P11712).
The nature of series [10]: Trypanosoma cruzi growth suppression in host cells – NIH3T3 host cells, beta-gal luminescence, confirmation (AID 2044).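 Also: intracellular parasites grown in NIH/3T3 mouse fibroblasts as host cells; luminescent beta-galactosidase reporter signal from transgenic T. cruzi replicating inside host cells; inhibitors lower the luminescence signal.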 Type of series: functional, cell-based.
Series [11] is described as follows: microbe, parasite or virus in culture. The settings on record: Mycobacterium tuberculosis. The class given is functional.
Series [12] is described as follows: NIH3T3 cell viability loss – ATP luminescence, mouse fibroblasts, counter-screen, dose response (AID 2010).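 Also: cells exposed to compound for about 90 hours before reading.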 Type of series: functional, cell-based.
The next series deals with Cytochrome P450 2C19 (Homo sapiens, UniProt P33261). Briefly: Cytochrome panel assay with activity outcomes. Panel member name: p450-cyp2c19 Compounds with AC50 equal or less than 10 uM are considered active. The class given is functional. The settings on record: read-out: AC50.
The target of series [13] is T5, Heat shock factor protein 1. Briefly: enhancement of HSF1-driven luciferase signal – cell-based, NIH3T3, luminescence, dose retest, confirmation (AID 435004).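 Also: stress induced by proteasome inhibitor MG132 added 30 min after compound; luciferase reporter driven by HSF1 response element in NIH3T3 cells; actives raise luminescence as potentiators of the MG132 stress response.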 Type of series: functional.
For another series, the target named is T6, Cytochrome P450 1A2 (Homo sapiens, UniProt P05177).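 Also: PubChem cytochrome P450 panel assay, CYP1A2 panel member.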
T6 sequence (P05177 whole entry): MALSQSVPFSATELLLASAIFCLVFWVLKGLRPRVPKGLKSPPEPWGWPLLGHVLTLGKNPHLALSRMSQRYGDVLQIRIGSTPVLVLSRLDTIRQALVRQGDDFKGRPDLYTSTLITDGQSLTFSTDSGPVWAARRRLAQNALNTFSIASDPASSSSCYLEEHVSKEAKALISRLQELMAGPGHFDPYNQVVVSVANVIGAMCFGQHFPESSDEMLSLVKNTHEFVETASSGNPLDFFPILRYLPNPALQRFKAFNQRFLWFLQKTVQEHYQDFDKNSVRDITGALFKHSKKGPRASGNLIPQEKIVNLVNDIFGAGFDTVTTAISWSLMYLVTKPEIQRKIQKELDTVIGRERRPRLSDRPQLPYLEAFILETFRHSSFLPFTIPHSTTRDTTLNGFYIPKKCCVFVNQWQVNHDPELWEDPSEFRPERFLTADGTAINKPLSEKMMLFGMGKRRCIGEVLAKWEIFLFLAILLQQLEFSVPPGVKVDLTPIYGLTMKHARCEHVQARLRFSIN

Active and inactive are the calls of the source.

Cytochrome P450 3A4, sequence (P08684 whole entry): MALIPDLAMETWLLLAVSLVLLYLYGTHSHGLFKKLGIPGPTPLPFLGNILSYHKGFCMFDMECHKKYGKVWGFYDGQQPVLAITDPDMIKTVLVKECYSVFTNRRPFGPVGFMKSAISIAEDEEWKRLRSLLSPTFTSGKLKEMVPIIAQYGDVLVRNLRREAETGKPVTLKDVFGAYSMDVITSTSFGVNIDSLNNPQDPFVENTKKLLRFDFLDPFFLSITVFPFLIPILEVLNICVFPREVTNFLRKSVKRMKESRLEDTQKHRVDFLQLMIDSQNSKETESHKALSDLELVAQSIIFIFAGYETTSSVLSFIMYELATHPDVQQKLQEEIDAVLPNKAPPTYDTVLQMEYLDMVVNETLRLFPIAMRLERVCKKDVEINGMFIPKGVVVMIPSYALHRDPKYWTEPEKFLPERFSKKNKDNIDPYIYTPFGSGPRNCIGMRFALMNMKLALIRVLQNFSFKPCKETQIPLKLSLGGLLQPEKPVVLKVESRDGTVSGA
Cytochrome P450 2C9, sequence (P11712 whole entry): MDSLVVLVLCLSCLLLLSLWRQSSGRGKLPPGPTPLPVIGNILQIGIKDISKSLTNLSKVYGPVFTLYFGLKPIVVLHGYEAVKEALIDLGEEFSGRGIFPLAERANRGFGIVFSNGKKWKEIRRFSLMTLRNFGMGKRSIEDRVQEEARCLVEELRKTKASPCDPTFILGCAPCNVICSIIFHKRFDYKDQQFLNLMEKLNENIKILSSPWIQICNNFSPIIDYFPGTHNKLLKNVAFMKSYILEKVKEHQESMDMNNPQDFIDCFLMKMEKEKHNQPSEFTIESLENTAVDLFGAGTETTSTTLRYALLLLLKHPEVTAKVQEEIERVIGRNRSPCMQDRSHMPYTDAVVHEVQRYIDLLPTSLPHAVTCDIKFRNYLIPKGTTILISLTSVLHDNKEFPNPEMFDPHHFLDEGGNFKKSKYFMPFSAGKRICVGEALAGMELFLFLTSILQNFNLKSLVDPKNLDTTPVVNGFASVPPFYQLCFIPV
Cytochrome P450 2C19, sequence (P33261 whole entry): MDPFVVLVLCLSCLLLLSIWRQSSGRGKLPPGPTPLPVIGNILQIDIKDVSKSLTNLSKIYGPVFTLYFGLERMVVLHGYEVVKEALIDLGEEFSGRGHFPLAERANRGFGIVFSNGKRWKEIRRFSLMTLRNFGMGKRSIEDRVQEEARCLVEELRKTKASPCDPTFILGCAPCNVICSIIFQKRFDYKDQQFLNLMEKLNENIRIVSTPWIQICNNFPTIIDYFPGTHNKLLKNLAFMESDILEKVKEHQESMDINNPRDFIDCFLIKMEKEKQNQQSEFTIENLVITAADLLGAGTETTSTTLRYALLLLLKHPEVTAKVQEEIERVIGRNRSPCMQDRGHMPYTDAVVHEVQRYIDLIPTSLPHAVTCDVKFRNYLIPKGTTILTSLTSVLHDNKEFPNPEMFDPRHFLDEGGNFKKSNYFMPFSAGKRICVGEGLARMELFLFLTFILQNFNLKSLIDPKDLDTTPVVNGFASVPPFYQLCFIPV

As to `O=C(Cn1cc(SCc2ccc(Cl)cc2)c2ccccc21)N1CCOCC1`, the IC50 at Caspase-3 was 27.1 µM (active); in series [1], 6.14 µM (active); in series [2] it was 10.3 µM (active); in series [3] it was > 100 µM (inactive).

As for `Cc1nc2ncnn2c(C)c1CCC(=O)N1CCN(C(=O)c2ccco2)CC1`, the half-maximal activity concentration (AC50) result on Cytochrome P450 3A4 is “inconclusive”.

For `c1ccn(-c2ccc(N3CCOCC3)cc2)c1`, in [4], the EC50 is > 195 µM (not active). Besides, the AC50 entry on Cytochrome P450 3A4 is “inconclusive”.

As for `Cc1cc(Br)ccc1OCC(=O)NNC(=O)c1cnccn1`, the values for the CC50 in [5] and in [6] were > 40 µM (active) and 17.8 µM (active), respectively. Moreover, the IC50 in the series “cells” is 8.2 µM (active).

`COc1ccc(Nc2nc(N3CCCCC3)c3ccccc3n2)cc1`: the concentration at half-maximal activity (AC50) in the series with INS1 was 4.63 µM (active); in series [7], 2.11 µM (active); in series [8], 36.5 µM (active); in series [9], 6.45 µM (active); on Cytochrome P450 2C9, 17.8 µM (inconclusive); on Cytochrome P450 3A4, “inconclusive”.

`O=C(COc1ccc(Cc2ccccc2)cc1)c1ccc(F)cc1`: the IC50 on Caspase-3 is 39.9 µM (active); in series [1], 15.6 µM (active); in series [2] it was 69.3 µM (active); in series [3], > 100 µM (inactive).

With `Cc1c(Cl)cccc1NC(=O)CN1CCC(C(O)(c2ccccc2)c2ccccc2)CC1`, the concentration giving a half-maximal response (EC50) in series [10] was 2.33 µM (active); in [12], > 30 µM (not active). In addition, in series [11], the CC50 is > 40 µM (active). At Cytochrome P450 3A4, the concentration at half-maximal activity (AC50) result is listed as “inconclusive”.

`O=C(Oc1ccccc1)N1CCC2(CC1)CCN(c1ccccn1)CC2`: the AC50 at Cytochrome P450 2C19 is 20 µM (inconclusive); on Cytochrome P450 2C9, 31.6 µM (inconclusive); at Cytochrome P450 3A4 it was “inconclusive”.

As for `O=C1c2ccccc2-c2nnc(-c3ccc(F)cc3)cc21`, the half-inhibitory concentration (IC50) is 2.59 µM (active) at Caspase-3, 1.9 µM (active) in [1], 2.5 µM (active) in series [2] and 3.58 µM (active) in [3].

As for `Cc1cccc(OCc2cc(-c3ccccc3)no2)c1C`, the IC50 was 26.6 µM (active) at Caspase-3, 5.47 µM (active) in series [1], 20.1 µM (active) in [2] and 42.8 µM (active) in series [3].

Consider `CCOc1ccc2nc(COC(=O)c3cccc([N+](=O)[O-])c3)c(C(C)=O)[n+]([O-])c2c1`, for which the EC50 in [13] was > 260 µM (inactive).

Take `COCOc1cc(O)c(C(=O)/C=C/c2ccccc2)c(OCOC)c1`: the EC50 in series [13] is 22.1 µM (active).

In the case of `O=C(Nc1ccccc1)N1CCC2(CC1)CCN(C(=O)c1ccco1)CC2`, the half-maximal activity concentration (AC50) on Cytochrome P450 2C19 was 39.8 µM (inconclusive); on Cytochrome P450 1A2 it was 10 µM (inconclusive); at Cytochrome P450 3A4 it was “inconclusive”.

The record behind these values is ChEMBL document CHEMBL1201862, “PubChem BioAssay data set” (2004).
